Consider 17 compounds from US12492202B2, “Macrocyclic PAD4 inhibitors useful as immunosuppressant” (BRISTOL-MYERS SQUIBB COMPANY, priority 2020, dated 2025).

In this assay the target is human PAD4 (hPAD4) (Homo sapiens (Human), UniProt Q9UM07). Nature of the assay: RFMS Human PAD4 Functional Assay. Particulars: rapid-fire mass spectrum (RFMS) assay; 5 nM hPAD4 enzyme, 250 μM BAEE, 30 min preincubation at 37° C. It is filed as biochemical.
Chain of human PAD4 (hPAD4) (Q9UM07 whole entry): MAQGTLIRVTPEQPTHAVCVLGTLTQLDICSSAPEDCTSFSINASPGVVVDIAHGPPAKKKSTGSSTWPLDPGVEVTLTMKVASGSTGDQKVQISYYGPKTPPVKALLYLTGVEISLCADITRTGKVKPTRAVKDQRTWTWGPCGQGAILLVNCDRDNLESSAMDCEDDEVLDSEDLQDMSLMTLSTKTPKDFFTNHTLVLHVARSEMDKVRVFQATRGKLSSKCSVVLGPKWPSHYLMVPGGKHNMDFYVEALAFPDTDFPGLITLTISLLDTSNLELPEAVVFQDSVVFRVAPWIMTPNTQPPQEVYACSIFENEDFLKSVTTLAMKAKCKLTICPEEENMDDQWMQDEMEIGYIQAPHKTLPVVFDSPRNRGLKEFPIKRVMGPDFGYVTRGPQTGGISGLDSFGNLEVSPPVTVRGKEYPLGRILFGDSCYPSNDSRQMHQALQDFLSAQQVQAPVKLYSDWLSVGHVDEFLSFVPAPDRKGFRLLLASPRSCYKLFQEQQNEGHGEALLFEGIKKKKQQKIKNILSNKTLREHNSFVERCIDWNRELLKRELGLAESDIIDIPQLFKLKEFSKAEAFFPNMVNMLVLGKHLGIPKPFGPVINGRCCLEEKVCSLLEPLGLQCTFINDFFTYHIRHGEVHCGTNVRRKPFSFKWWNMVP
Method: RFMS Human PAD4 Functional Assay: Compounds were solubilized in 100% DMSO to achieve a 10 mM compound concentration. Compound stock solutions were stored at RT. A series of dilutions were prepared in DMSO and mixed 8 times with 20 μL mixing volume. Final top concentration of compound in the assay is 50 μM. Final assay conditions were as follows: • Reaction volume: 26 μl • Assay buffer: 25 mM hepes, pH 7.5, 5 mM NaCl, 1 mM DTT, 0.2 mg/ml BSA, 0.01% CHAPS, 50 μM Calcium, and 5 μM TPEN • Final concentrations: 5 nM hPAD4 enzyme, 250 μM BAEE, and 0.5% DMSO • Total incubation time: 30 mins compound and enzyme preincubation at 37° C., 90 min enzyme/substrate reaction, 30 min reaction with phenyl glyoxal at 37° C. • Stop solution: 40 μl 5% TCA in ACN 0.13 μL of compound solution was added to 13 μL of 10 nM PAD4 in assay buffer. After 30 min 13 μl of 500 μM of BAEE was added in 25 mM hepes, pH 7.5, 5 mM NaCl, 1 mM DTT, 0.2 mg/ml BSA, 0.01% CHAPS, 50 μM Calcium, 5 μM TPEN was added and the reaction incubated for 90 min at 37° C. The enzymatic reaction was quenched by addition of 15 μl of 6.1N TCA, 100% Final Concentration is 20%, 35 μl of 8.5 mM phenyl glyoxal (final concentration 4 mM) is then added and the reaction is incubated for 30 min at 37° C. After 30 minutes the plates are spun down to remove all precipitate. The enzyme reaction was quenched with an equal volume of methanol containing internal standard (modified citrulline). Samples were loaded onto the Rapid Fire RF300 system (Agilent) wherein they were first sipped for 1000 ms and then directly loaded to a C18 separations cartridge using a mixture of acetonitrile containing 0.01% formic acid for 3000 ms desalting. The flow rate of the mobile phase was 1.5 ml/min. Once the samples were eluted from the cartridge, a mobile phase of acetonitrile containing 0.01% formic acid was used to move the samples into the mass spectrometer for 4000 ms at a flow rate of 1.25 ml/min/Sciex API5500 triple quadrupole mass spectrometer (Applied Biosystems) equipped with ESI was used to analyze the peptidyl citrulline and internal standard ions. MRM transition of product and internal standard were monitored at m/z 424.5 to 350.4 and m/z 293 to 247 respectively. The dwell time for each transition was set at 200 ms, and the ESI voltage was used at 5500 with a source temperature of 400° C. Extracted ion peaks for each transition were integrated using the Rapid Fire Integrator software. Peak area of analyte was normalized with internal standard).
With `COc1cc(C(=O)N2CC3CCC2[C@@H]3N)cc2nc3n(c12)Cc1cc(C(N)=O)cc(c1)-c1ccccc1CCCCn1c-3cc2cccnc21` (stereo partly drawn) [Example 29, 2^5-((1R,4R,7R)-7-amino-2-azabicyclo[2.2.1]heptane-2-carbonyl)-2^7-methoxy-1^1H,2^1H-1,2(2,1)-dipyrrolo[2,3-b]pyridina-4(1,3),5(1,2)-dibenzenacyclononaphane-4^5-carboxamide], the IC50 worked out at 59 nM.

For `COc1cc(C(=O)N2C[C@H](N)C[C@@H](F)C2)cc2nc3n(c12)Cc1cncc(c1)-c1ccccc1CCCCn1c-3cc2cccnc21` [Example 30, ((3R,5R)-3-amino-5-fluoropiperidin-1-yl)(2^7-methoxy-1^1H, 2^1H-1,2(2,1)-dipyrrolo[2,3-b]pyridina-4(3,5)-pyridina-5(1,2)-benzenacyclononaphane-2^5-yl)methanone], the concentration for half-maximal inhibition (IC50) was determined as 4 nM.

For the compound `COc1cc(C(=O)N2CC3CCC2[C@@H]3N)cc2nc3n(c12)Cc1cncc(c1)-c1ccccc1CCCCn1c-3cc2cccnc21` (stereo partly drawn) [Example 31, ((1R,4R,7R)-7-amino-2-azabicyclo[2.2.1]heptan-2-yl)(2^7-methoxy-1^1H,2^1H-1,2(2,1)-dipyrrolo[2,3-b]pyridina-4(3,5)-pyridina-5(1,2)-benzenacyclononaphane-2^5-yl)methanone], 10 nM corresponded to half-maximal inhibition (IC50).

`COc1cc(C(=O)N2CC3CCC2[C@@H]3N)cc2nc3n(c12)Cc1cc(ccn1)-c1ccccc1CCCCn1c-3cc2cccnc21` (stereo partly drawn) [Example 32, ((1R,4R,7R)-7-amino-2-azabicyclo[2.2.1]heptan-2-yl)(2^7-methoxy-1^1H,2^1H-1,2(2,1)-dipyrrolo[2,3-b]pyridina-4(2,4)-pyridina-5(1,2)-benzenacyclononaphane-2^5-yl)methanone]: the IC50 was 112 nM.

Take `COc1cc(C(=O)N2C[C@H](N)C[C@@H](F)C2)cc2nc3n(c12)Cc1cccc(c1)-c1ccccc1OCCCn1c-3cc2cccnc21` [Example 33, ((3R,5R)-3-amino-5-fluoropiperidin-1-yl)(2^7-methoxy-1^1H,2^1H-6-oxa-1,2(2,1)-dipyrrolo[2,3-b]pyridina-4(1,3),5(1,2)-dibenzenacyclononaphane-2^5-yl)methanone]: the midpoint of inhibition, the IC50, lay at 120 nM.

With `COc1cc(C(=O)N2CC3CCC2[C@@H]3N)cc2nc3n(c12)Cc1cccc(c1)-c1ccccc1OCCCn1c-3cc2cccnc21` (stereo partly drawn) [Example 34, ((1R,4R,7R)-7-amino-2-azabicyclo[2.2.1]heptan-2-yl)(2^7-methoxy-1^1H,2^1H-6-oxa-1,2(2,1)-dipyrrolo[2,3-b]pyridina-4(1,3),5(1,2)-dibenzenacyclononaphane-2^5-yl)methanone], the IC50 was determined as 30 nM.

`COc1cc(C(=O)N2C[C@H](N)C[C@@H](F)C2)cc2nc3n(c12)Cc1cncc(c1)-c1ccccc1OCCCn1c-3cc2cccnc21` [Example 35, ((3R,5R)-3-amino-5-fluoropiperidin-1-yl)(2^7-methoxy-1^1H,2^1H-6-oxa-1,2(2,1)-dipyrrolo[2,3-b]pyridina-4(3,5)-pyridina-5(1,2)-benzenacyclononaphane-2^5-yl)methanone] returned an IC50 of 14 nM.

`COc1cc(C(=O)N2CC3CCC2[C@@H]3N)cc2nc3n(c12)Cc1cncc(c1)-c1ccccc1OCCCn1c-3cc2cccnc21` (stereo partly drawn) [Example 36, ((1R,4R,7R)-7-amino-2-azabicyclo[2.2.1]heptan-2-yl)(2^7-methoxy-1^1H,2^1H-6-oxa-1,2(2,1)-dipyrrolo[2,3-b]pyridina-4(3,5)-pyridina-5(1,2)-benzenacyclononaphane-2^5-yl)methanone] yielded an IC50 of 7 nM.

On to `COc1cc(C(=O)N2C[C@H]3CC[C@@H]2[C@@H]3N)cc2nc3n(c12)CCC(=O)Nc1ccccc1OCCCn1c-3cc2cccnc21` [Example 40, 21-((1R,4R,7R)-7-amino-2-azabicyclo[2.2.1]heptane-2-carbonyl)-19-methoxy-7,8,16,17-tetrahydro-6H-benzo[b]benzo[4,5]imidazo[1,2-h]pyrido[3′,2′:4,5]pyrrolo[2,1-j][1]oxa[4,8,11]triazacyclotetradecin-15(14H)-one], for which the midpoint of inhibition, the IC50, lay at 30 nM.

In turn, `COc1cc(C(=O)N2C[C@H]3CC[C@@H]2[C@@H]3N)cc2nc3n(c12)Cc1cccc(c1)CCCCCCn1c-3cc2cccnc21` [Example 42, ((1R,4R,7R)-7-amino-2-azabicyclo[2.2.1]heptan-2-yl)(27-methoxy-11H,21H-1,2(2,1)-dipyrrolo[2,3-b]pyridina-4(1,3)-benzenacyclodecaphane-25-yl)methanone] yielded an IC50 of 49.7 nM.

The compound `COc1cc(C(=O)N2C[C@H]3CC[C@@H]2[C@@H]3N)cc2nc3n(c12)Cc1cccc(c1)[C@@H]1CN(C)C[C@@H]1CCCCn1c-3cc2cccnc21` [Example 43, ((1R,4R,7R)-7-amino-2-azabicyclo[2.2.1]heptan-2-yl)((5^3R,5^4R)-2^7-methoxy-5′-methyl-1′H,2^1H-1,2(2,1)-dipyrrolo[2,3-b]pyridina-5(3,4)-pyrrolidina-4(1,3)-benzenacyclononaphane-2^5-yl)methanone] yielded an IC50 of 153 nM.

The compound `COc1cc(C(=O)N2C[C@H]3CC[C@@H]2[C@@H]3N)cc2nc3n(c12)Cc1cccc(c1)C1[C@@H](CCCCn2c-3cc3cccnc32)C1(F)F` (stereo partly drawn) [Example 44, ((1R,4R,7R)-7-amino-2-azabicyclo[2.2.1]heptan-2-yl)((5^1S,5^2R)-5^3,5^3-difluoro-2^7-methoxy-1H,2^1H-1,2(2,1)-dipyrrolo[2,3-b]pyridina-4(1,3)-benzena-5(1,2)-cyclopropanacyclononaphane-2^5-yl)methanone] came in with an IC50 of 216 nM.

`COc1cc(C(=O)N2C[C@H](N)C[C@@H](F)C2)cc2nc3n(c12)Cc1cccc(c1)/C=C\CCCCn1c-3cc2cccnc21` [Example 51, ((3R,5R)-3-amino-5-fluoropiperidin-1-yl)((Z)-2^7-methoxy-1^1H,2^1H-1,2(2,1)-dipyrrolo[2,3-b]pyridina-4(1,3)-benzenacyclodecaphan-5-en-2^5-yl)methanone]: the midpoint of inhibition, the IC50, lay at 119 nM.

For `COc1cc(C(=O)N2C[C@H](N)C[C@@H](F)C2)cc2nc3n(c12)Cc1cncc(c1)-c1ccccc1CCCCn1c-3cc2ccc(C(C)(C)O)nc21` [Example 52, ((3R,5R)-3-Amino-5-fluoropiperidin-1-yl)(1^6-(2-hydroxypropan-2-yl)-2^7-methoxy-1^1H,2^1H-1,2(2,1)-dipyrrolo[2,3-b]pyridina-4(3,5)-pyridina-5(1,2)-benzenacyclononaphane-2^5-yl)methanone], half-maximal inhibition (IC50) required 8 nM.

The compound `COc1cc(C(=O)N2C[C@H]3CC[C@@H]2[C@@H]3N)cc2nc3n(c12)Cc1cncc(c1)-c1ccccc1CCCCn1c-3cc2ccc(C(C)(C)O)nc21` [Example 53, ((1R,4R,7R)-7-Amino-2-azabicyclo[2.2.1]heptan-2-yl)(1^6-(2-hydroxypropan-2-yl)-2^7-methoxy-1^1H,2^1H-1,2(2,1)-dipyrrolo[2,3-b]pyridina-4(3,5)-pyridina-5(1,2)-benzenacyclononaphane-2^5-yl)methanone] returned an IC50 of 14 nM.

“((1R,4R,7R)-7-amino-2-azabicyclo[2.2.1]heptan-2-yl)((cis)-6,7-dihydroxy-2^7-methoxy-1^1H,2^1H-1,2(2,1)-dipyrrolo[2,3-b]pyridina-4(1,3),5(1,2)-dibenzenacyclononaphane-2^5-yl)methanone [Example 39]” had an IC50 of 26 nM.

In turn, “((3R,5R)-3-amino-5- fluoropiperidin-1-yl)((Z)-2^7- methoxy-1^1H,2^1H,4^1H-2(2,1)- benzo[d]imidazola-1(2,1)-indola- 4(4,1)-pyrazolacyclodecaphane- 2^5-yl)methanone [Example 7]” displayed an IC50 of 136 nM.

Broadly, the IC50 is the concentration needed to halve the response being measured. Read a low IC50 as greater potency in that assay.
